Measurements as given in patent US20250051338A1, “TYK2 DEGRADERS AND USES THEREOF” (Kymera Therapeutics, Inc., priority 2021, published 2025).

Legend:
Type in all cases: cell-based
TYK2 [1] = molecular target: T1, TYK2 (Homo sapiens, UniProt P29597); test: TYK2 degradation MSD assay in human PBMC cells; set-up: endogenous in cells; host or cells: human PBMC; conditions: 4 to 24 hours incubation, read-out: TYK2 MSD DC50 rating in human PBMC
Summary of the method: (§1)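 DC50 values reflect dose-dependent decrease of TYK2 protein, read by MSD after cells were exposed to compound (top 1 to 10 μM, 1:3, 9 doses) for 4 to 24 hours at 37° C.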

TYK2 [2] = molecular target: T1, TYK2; test: TYK2 degradation MSD assay in EBV-B cells; set-up: endogenous in cells; host or cells: EBV-B cells; conditions: 4 to 24 hours incubation, read-out: TYK2 MSD DC50 rating in EBV-B
Summary of the method: as §1

TYK2 [3] = molecular target: T1, TYK2; test: TYK2 degradation MSD assay in OCI-LY10 cells; set-up: endogenous in cells; host or cells: EBV-B cells; conditions: 4 to 24 hours incubation, read-out: TYK2 MSD DC50 rating in OCI-LY10
Summary of the method: as §1

T1 sequence (P29597 whole entry): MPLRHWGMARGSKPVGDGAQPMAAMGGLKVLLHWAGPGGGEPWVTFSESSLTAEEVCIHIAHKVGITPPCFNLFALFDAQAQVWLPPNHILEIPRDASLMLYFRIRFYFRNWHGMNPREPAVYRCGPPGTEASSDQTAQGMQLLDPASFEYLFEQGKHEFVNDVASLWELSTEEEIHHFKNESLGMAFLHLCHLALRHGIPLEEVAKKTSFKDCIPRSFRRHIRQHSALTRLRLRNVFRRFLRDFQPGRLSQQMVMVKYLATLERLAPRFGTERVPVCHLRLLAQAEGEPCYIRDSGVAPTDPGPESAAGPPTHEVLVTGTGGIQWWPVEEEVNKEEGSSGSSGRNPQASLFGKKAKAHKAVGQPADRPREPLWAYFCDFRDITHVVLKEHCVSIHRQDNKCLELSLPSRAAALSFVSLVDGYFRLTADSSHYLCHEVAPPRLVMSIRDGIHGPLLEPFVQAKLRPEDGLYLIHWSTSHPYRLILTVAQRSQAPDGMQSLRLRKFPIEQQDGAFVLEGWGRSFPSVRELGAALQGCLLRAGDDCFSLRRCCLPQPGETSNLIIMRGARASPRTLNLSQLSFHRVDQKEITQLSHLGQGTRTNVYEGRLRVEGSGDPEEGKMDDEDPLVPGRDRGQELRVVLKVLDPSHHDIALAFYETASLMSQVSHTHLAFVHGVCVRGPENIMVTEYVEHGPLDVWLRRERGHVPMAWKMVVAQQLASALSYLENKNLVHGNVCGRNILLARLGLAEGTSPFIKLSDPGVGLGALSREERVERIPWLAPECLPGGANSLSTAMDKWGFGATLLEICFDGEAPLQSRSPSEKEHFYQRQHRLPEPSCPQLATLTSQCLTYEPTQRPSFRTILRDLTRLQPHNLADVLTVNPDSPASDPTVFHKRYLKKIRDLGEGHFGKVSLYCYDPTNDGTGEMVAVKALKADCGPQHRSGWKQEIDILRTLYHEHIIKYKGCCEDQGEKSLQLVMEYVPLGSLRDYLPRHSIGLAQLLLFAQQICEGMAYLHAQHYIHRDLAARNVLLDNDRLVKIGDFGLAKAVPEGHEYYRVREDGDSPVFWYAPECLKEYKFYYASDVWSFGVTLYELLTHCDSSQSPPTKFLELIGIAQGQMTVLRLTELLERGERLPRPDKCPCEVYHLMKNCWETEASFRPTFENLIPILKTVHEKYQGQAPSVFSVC

Structure (SMILES)	DC50 (TYK2 [1])	DC50 (TYK2 [2])	DC50 (TYK2 [3])
CNc1cc(Nc2cccn(-c3ccc(C(=O)N(C)CC4CCN(Cc5cccc6c5n(C)c(=O)n6C5CCC(=O)NC5=O)CC4)cn3)c2=O)nn2c(C(=O)N[C@@H]3C[C@@H]3F)cnc12 (stereo partly drawn) [Example K281]	< 1 nM	< 1 nM	> 100 nM
CNc1cc(Nc2cccc(-c3ccc(CN4CCC(CCc5cccc6c5n(C)c(=O)n6C5CCC(=O)NC5=O)CC4)cn3)c2)nn2c(C(=O)N[C@@H]3C[C@@H]3F)cnc12 (stereo partly drawn) [Example K507]	> 100 nM	1 to 10 nM	< 1 nM
CNc1cc(Nc2cccn(-c3ccc(C(=O)N4CCN([C@H]5CC[C@@H](c6ccc(-c7ccc8c(c7)n(C)c(=O)n8C7CCC(=O)NC7=O)cc6)CC5)CC4)cn3)c2=O)nn2c(C(=O)N[C@@H]3C[C@@H]3F)cnc12 (stereo partly drawn) [Example K377]	> 100 nM	< 1 nM	> 100 nM
CNc1cc(N2CCc3c(-c4ccc(C(=O)N5CCN([C@H]6CC[C@H](c7ccc(-c8ccc9c(c8)n(C)c(=O)n9C8CCC(=O)NC8=O)cc7)CC6)CC5)cn4)cccc32)nn2c(C(=O)N[C@@H]3C[C@@H]3F)cnc12 (stereo partly drawn) [Example K616]	> 100 nM	> 100 nM	1 to 10 nM
CNC(=O)c1cnc(Nc2ccc(C(=O)NCCCCc3cccc4c3n(C)c(=O)n4C3CCC(=O)NC3=O)cn2)cc1Nc1ccccc1OC (stereo not drawn) [Example K191]	1 to 10 nM	> 100 nM	1 to 10 nM
CNc1cc(-c2ccc(C3CCN(CC4CCN(c5ccc(-c6ccc7c(c6)n(C)c(=O)n7C6CCC(=O)NC6=O)cc5)CC4)CC3)cc2)nn2c(C(=O)N[C@@H]3C[C@@H]3F)cnc12 (stereo partly drawn) [Example K530]	> 100 nM	> 100 nM	> 100 nM
Cn1c(=O)n(C2CCC(=O)NC2=O)c2ccc(-c3ccc(N4CCN(Cc5ccc(-c6cccc(Nc7cc(NC8CC8)n8ncc(C(=O)N[C@@H]9C[C@@H]9F)c8n7)c6)nc5)CC4)cc3)cc21 (stereo partly drawn) [Example K509]	> 100 nM	1 to 10 nM	1 to 10 nM
CNc1cc(Nc2cccn(-c3ccc(C(=O)N4CC5(CN(CCC#Cc6ccc7c(c6)n(C)c(=O)n7C6CCC(=O)NC6=O)CCO5)C4)cn3)c2=O)nn2c(C(=O)N[C@@H]3C[C@@H]3F)cnc12 (stereo partly drawn) [Example K420]	> 100 nM	> 100 nM	< 1 nM
CNc1cc(Nc2cccc(-c3ccc(CN4CCN(C5CCC(c6ccc(-c7ccc8c(c7)n(C)c(=O)n8C7CCC(=O)NC7=O)cc6)CC5)CC4)cn3)c2)nn2c(C(=O)N[C@@H]3C[C@@H]3F)cnc12 (stereo partly drawn) [Example K463]	> 100 nM	> 100 nM	1 to 10 nM
CNc1cc(N2CCc3c(-c4ccc(CN5CCN([C@H]6CC[C@H](c7ccc(-c8ccc9c(c8)n(C)c(=O)n9C8CCC(=O)NC8=O)cc7)CC6)CC5)cn4)cccc32)nn2c(C(=O)N[C@@H]3CC3F)cnc12 (stereo partly drawn) [Example K566]	> 100 nM	> 100 nM	1 to 10 nM
CNC(=O)c1cnc(Nc2ccc(CN3CCCC(c4ccc5c(c4)n(C)c(=O)n5C4CCC(=O)NC4=O)C3)cn2)cc1Nc1cccc(-c2ncc(F)cn2)c1OC (stereo not drawn) [Example K168]	> 100 nM	> 100 nM	> 100 nM
CNc1cc(C2CCCN(C(=O)CCCCCCCc3ccc4c(c3)n(C)c(=O)n4C3CCC(=O)NC3=O)C2)nn2c(C(=O)N[C@@H]3C[C@@H]3F)cnc12 (stereo partly drawn) [Example K304]	> 100 nM	> 100 nM	> 100 nM
CNc1cc(Nc2cccc(-c3ccc(CN4CCN(c5ccc(-c6cccc7c6n(C)c(=O)n7C6CCC(=O)NC6=O)cc5)CC4)cn3)c2)nn2c(C(=O)N[C@@H]3C[C@@H]3F)cnc12 (stereo partly drawn) [Example K513]	> 100 nM	1 to 10 nM	1 to 10 nM
CNc1cc(Nc2cccc(-c3ccc(CN4CCN(c5ccc(-c6ccc7c(c6)n(C)c(=O)n7C6CCC(=O)NC6=O)cc5)CC4)cn3)c2OC)nn2ccnc12 (stereo not drawn) [Example K615]	> 100 nM	> 100 nM	> 100 nM
CNc1cc(-c2cnn(C3CCC(CN4CC5(CCN(c6cccc7c6n(C)c(=O)n7C6CCC(=O)NC6=O)CC5)C4)CC3)c2)nn2c(C(=O)NC3C[C@@H]3F)cnc12 (stereo partly drawn) [Example K362]	< 1 nM	> 100 nM	> 100 nM
CNC(=O)c1cnc(Nc2ccc(CN(C)C3CCCN(c4cccc5c4n(C)c(=O)n5C4CCC(=O)NC4=O)C3)cn2)cc1Nc1cccc(-c2ncc(F)cn2)c1OC (stereo not drawn) [Example K162]	> 100 nM	1 to 10 nM	> 100 nM
CNc1cc(N2CCc3c(-c4ccc(CN5CC6(C5)CN(c5ccc(-c7ccc8c(c7)n(C)c(=O)n8C7CCC(=O)NC7=O)cc5)C6)cn4)cccc32)nn2c(C(=O)N[C@@H]3C[C@@H]3F)cnc12 (stereo partly drawn) [Example K574]	> 100 nM	> 100 nM	1 to 10 nM
CNc1cc(-c2ccc(-c3ccc(CN4CCN(c5ccc(-c6ccc7c(c6)n(C)c(=O)n7C6CCC(=O)NC6=O)cc5)CC4)cc3)c3nccn23)nn2c(C(=O)N[C@@H]3C[C@@H]3C)cnc12 (stereo partly drawn) [Example K492]	> 100 nM	> 100 nM	10 to 100 nM

Structure (SMILES)	DC50 (TYK2 [1])	DC50 (TYK2 [2])	DC50 (TYK2 [3])
CNc1cc(Nc2cccn(-c3cc(C(=O)NCCCCCCc4ccc5c(c4)n(C)c(=O)n5C4CCC(=O)NC4=O)ccn3)c2=O)nn2c(C(=O)N[C@@H]3C[C@@H]3F)cnc12 (stereo partly drawn) [Example K229]	< 1 nM	> 100 nM	> 100 nM
Cn1c(=O)n(C2CCC(=O)NC2=O)c2ccc(-c3ccc(CCCNc4cc(Nc5cccn(-c6ccccn6)c5=O)nn5c(C(=O)N[C@@H]6C[C@@H]6F)cnc45)nc3)cc21 (stereo partly drawn) [Example K365]	> 100 nM	> 100 nM	> 100 nM
CNc1cc(Nc2cccn(-c3ccc(C(=O)NCCOCCOCCOCCOCCOCCOCCc4ccc5c(c4)n(C)c(=O)n5C4CCC(=O)NC4=O)cn3)c2=O)nn2c(C(=O)N[C@@H]3C[C@@H]3F)cnc12 (stereo partly drawn) [Example K215]	10 to 100 nM	> 100 nM	> 100 nM
CNC(=O)c1cnc(Nc2ccc(CN3CCC4(CC3)CC(Cc3ccc5c(c3)n(C)c(=O)n5C3CCC(=O)NC3=O)C4)cn2)cc1Nc1cccc(-c2ncc(F)cn2)c1OC (stereo not drawn) [Example K144]	< 1 nM	< 1 nM	> 100 nM
CNC(=O)c1cnc(Nc2ccc(CN3CCC(c4ccc5c(c4)n(C)c(=O)n5C4CCC(=O)NC4=O)C3)cn2)cc1Nc1cccc(-c2ncc(F)cn2)c1OC (stereo not drawn) [Example K166]	> 100 nM	< 1 nM	> 100 nM
CNc1cc(Nc2cccn(-c3ccc(C(=O)N4CCC(N5CC(c6ccc7c(c6)n(C)c(=O)n7C6CCC(=O)NC6=O)C5)CC4)cn3)c2=O)nn2c(C(=O)N[C@@H]3C[C@@H]3F)cnc12 (stereo partly drawn) [Example K410]	> 100 nM	> 100 nM	< 1 nM
CNc1cc(Nc2cccc(CN3CCC4(CCN(c5ccc(-c6ccc7c(c6)n(C)c(=O)n7C6CCC(=O)NC6=O)cc5)C4)C3)c2)nn2c(C(=O)NC3CC3)cnc12 (stereo not drawn) [Example K588]	> 100 nM	> 100 nM	1 to 10 nM
CNc1cc(Nc2cccc(-c3ccc(CN4CCC(N5CC(N6CCN(c7ccc8c(c7)n(C)c(=O)n8C7CCC(=O)NC7=O)CC6)C5)CC4)cn3)c2OC)nn2c(C(=O)N[C@@H]3C[C@@H]3F)cnc12 (stereo partly drawn) [Example K487]	> 100 nM	> 100 nM	< 1 nM
CNc1cc(Nc2cccc(-c3ccc(CN4CCN(c5ccc(-c6ccc7c(c6)n(C)c(=O)n7C6CCC(=O)NC6=O)cn5)C(=O)C4)cn3)c2)nn2c(C(=O)N[C@@H]3C[C@@H]3F)cnc12 (stereo partly drawn) [Example K455]	> 100 nM	< 1 nM	< 1 nM
CNc1cc(-c2cccc(C(=O)NCCCCc3ccc4c(c3)n(C)c(=O)n4C3CCC(=O)NC3=O)c2)nn2c(C(=O)N[C@@H]3C[C@@H]3F)cnc12 (stereo partly drawn) [Example K307]	> 100 nM	> 100 nM	> 100 nM
CNc1cc(Nc2cccc(-c3ccc(CN4CCC(N5CC(N6CCN(c7cccc8c7n(C)c(=O)n8C7CCC(=O)NC7=O)CC6)C5)CC4)cn3)c2)nn2c(C(=O)N[C@@H]3C[C@@H]3F)cnc12 (stereo partly drawn) [Example K517]	> 100 nM	> 100 nM	< 1 nM
CNC(=O)c1cnc(Nc2ccc(C(=O)NCCCCCCCCc3ccc4c(c3)n(C)c(=O)n4C3CCC(=O)NC3=O)cn2)cc1Nc1cccc(-c2ncc(F)cn2)c1OC (stereo not drawn) [Example K111]	< 1 nM	1 to 10 nM	> 100 nM
CNc1cc(Nc2cccn(-c3ccc(C(=O)N4CCC(OCC#Cc5ccc6c(c5)n(C)c(=O)n6C5CCC(=O)NC5=O)CC4)cn3)c2=O)nn2c(C(=O)N[C@@H]3C[C@@H]3F)cnc12 (stereo partly drawn) [Example K394]	> 100 nM	1 to 10 nM	> 100 nM
CNc1cc(Nc2cccn(-c3ccc(C(=O)N4CCC(CN5CCCN(c6ccc(-c7ccc8c(c7)n(C)c(=O)n8C7CCC(=O)NC7=O)cn6)CC5)CC4)cn3)c2=O)nn2c(C(=O)N[C@@H]3C[C@@H]3F)cnc12 (stereo partly drawn) [Example K422]	> 100 nM	> 100 nM	< 1 nM
CNC(=O)c1cnc(Nc2ccc(CN(C)C3CCCN(c4ccc5c(c4)n(C)c(=O)n5C4CCC(=O)NC4=O)C3)cn2)cc1Nc1cccc(-c2ncc(F)cn2)c1OC (stereo not drawn) [Example K160]	> 100 nM	< 1 nM	> 100 nM
CNc1cc(-c2cnn(C3CN(C(=O)NCCCCCCCCc4ccc5c(c4)n(C)c(=O)n5C4CCC(=O)NC4=O)C3)c2)nn2c(C(=O)NC3C[C@@H]3F)cnc12 (stereo partly drawn) [Example K318]	> 100 nM	> 100 nM	> 100 nM
CNC(=O)c1cnc(Nc2ccc(CN3CCC(c4ccc5c(c4)n(C)c(=O)n5C4CCC(=O)NC4=O)CC3)cn2)cc1Nc1cccc(-c2ncc(F)cn2)c1OC (stereo not drawn) [Example K172]	> 100 nM	< 1 nM	> 100 nM
